In PMC9605737, “Identification of 6ω-cyclohexyl-2-(phenylamino carbonylmethylthio)pyrimidin-4(3H)-ones targeting the ZIKV NS5 RNA dependent RNA polymerase” (Frontiers in Chemistry, 2022):

Tests used:
[1] = MTT cytotoxicity assay in A549 cells; assay type: cell-based; settings: human
Protocol: MTT assay was used to detect the toxicity of the compound. Cells were seeded in 96-well plates and cultured overnight. Compounds with different concentrations were added and incubated for 96 h. Then, 20 μl of 5 mg/ml MTT (Sigma-Aldrich, United States) solution was added to each well and kept at 37°C for 4 h. Subsequently, 100 μl of 12% SDS-50% DMF (Sigma-Aldrich, United States) solution was added and incubated overnight at 37°C. After the crystalline formamidine was completely dissolved, the optical density (OD) value was measured using a microplate reader (BioTek, United States) with a wavelength of 570 nm and a reference wavelength of 630 nm.
The 50% effective concentration (EC50) and 50% cytotoxic concentration (CC50) of the compound were calculated according to the Reed and Muench method, inhibition rate of ZIKV RNA yield- [(1-drug treatment/positive control) × 100]. The data and graphs were processed using GraphPad Prism8 software, expressed as mean ± standard deviation (Mean ± SD), comparison between groups using ANOVA, p < 0.05 was considered statistically significant.

[2] = Figure 3; ref Shen (2015); cited from earlier work
ZIKV NS5 protein = molecular target: T1, ZIKV NS5 protein (Zika virus, UniProt A0A024B7W1); assay: Cell thermal shift assay (CETSA) with WB detection; assay type: binding; settings: 50 μM, lysate of ZIKV-infected Vero cells, 60 min; DMSO control 42.3°C
T1 construct: endogenous in cells; host or cells: Vero cells infected with ZIKV
Protocol: Cell thermal shift assay (CETSA) experiments are often used to detect the binding of intracellular drugs to target proteins. The assay was based on the principle of ligand-induced changes in protein thermal stability. The stability of the protein is evaluated by comparing the melting curves between the control group and the experimental group, thus assessing the interaction of the compound with the target protein.
Therefore, in order to further verify the interaction between 4w and ZIKV NS5, ZIKV-infected cell were treated with 4w (at 50 μM concentration), then total protein was incubation for 60 min at room temperature, and it was divided into nine equal parts. The same volume of DMSO was added as a control, and the treated protein was heated in a temperature gradient and then detected ZIKV NS5 protein by WB assay (Figure 5A).
Vero cells were inoculated in a 10 cm cell culture dish and cultured overnight, and after infection with ZIKV (MOI ≈2), maintenance medium was added to continue culturing for 3 days. Detergent-free protein lysis buffer (25 mM HEPES, 20 mM MgCl2, 2 mM DTT) was added, and cells were lysed by sonication. […] The supernatants were collected to prepare the samples, and the binding of 4w and ZIKV NS5 protein was analyzed by Western blotting ([Chen et al., 2020]; [Chen et al., 2021]).

T1 sequence (A0A024B7W1 2521-3423): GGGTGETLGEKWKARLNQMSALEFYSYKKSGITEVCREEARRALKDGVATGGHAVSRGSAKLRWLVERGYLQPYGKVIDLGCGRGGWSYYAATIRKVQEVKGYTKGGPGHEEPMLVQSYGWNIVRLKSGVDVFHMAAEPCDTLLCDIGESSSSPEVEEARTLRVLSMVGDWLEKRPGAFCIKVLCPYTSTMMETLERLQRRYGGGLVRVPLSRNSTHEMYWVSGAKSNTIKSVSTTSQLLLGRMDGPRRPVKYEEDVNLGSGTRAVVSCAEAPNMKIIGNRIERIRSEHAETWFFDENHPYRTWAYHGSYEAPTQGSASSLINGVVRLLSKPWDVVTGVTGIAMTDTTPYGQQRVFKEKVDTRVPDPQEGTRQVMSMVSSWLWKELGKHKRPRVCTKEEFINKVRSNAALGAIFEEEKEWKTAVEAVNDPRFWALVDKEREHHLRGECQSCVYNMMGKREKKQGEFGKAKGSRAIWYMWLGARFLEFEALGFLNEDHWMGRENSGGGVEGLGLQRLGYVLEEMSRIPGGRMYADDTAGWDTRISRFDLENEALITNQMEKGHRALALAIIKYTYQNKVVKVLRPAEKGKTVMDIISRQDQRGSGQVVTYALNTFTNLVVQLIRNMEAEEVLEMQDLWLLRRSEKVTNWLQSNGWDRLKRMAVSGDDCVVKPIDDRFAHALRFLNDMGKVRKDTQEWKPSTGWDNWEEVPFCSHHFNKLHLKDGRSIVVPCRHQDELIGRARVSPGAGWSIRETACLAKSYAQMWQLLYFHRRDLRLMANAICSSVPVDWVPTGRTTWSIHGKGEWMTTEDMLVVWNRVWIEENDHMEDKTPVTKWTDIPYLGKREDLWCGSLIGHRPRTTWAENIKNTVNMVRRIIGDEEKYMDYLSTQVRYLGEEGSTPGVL

SMILES: CCc1c(C2CCCCC2)nc(SCC(=O)Nc2cc(F)cc(F)c2)[nH]c1=O [Compound 4w, 2-{[4-cyclohexyl-5-ethyl-6-oxo-1,6-dihydropyrimidin-2-yl]thio}-N-(3,5-difluorophenyl)acetamide]
- CC50 at 96 h [1]: > 200 µM
- CC50 [2]: > 10 µM
- apparent aggregation temperature (Tagg) of ZIKV NS5 protein (ZIKV NS5 protein): 49.3 °C
